Patent publication US20180085432A1, “STING (Stimulator of Interferon Genes), A Regulator of Innate Immune Responses” (University of Miami, priority 2008, published 2018)

Tests used:
[1] = biological target: T1, STING (Mus musculus, UniProt Q3TBT3); experiment: STING trafficking in MEFs stably transfected with HA-STING after ISD stimulation; type: cell-based, murine; settings: Brefeldin A (0.1 ng/ml) or chloroquine (0.1 mM) for 1 hour prior to ISD stimulation
T1 construct: expressed in transfected cells
T1 sequence (Q3TBT3 1-378): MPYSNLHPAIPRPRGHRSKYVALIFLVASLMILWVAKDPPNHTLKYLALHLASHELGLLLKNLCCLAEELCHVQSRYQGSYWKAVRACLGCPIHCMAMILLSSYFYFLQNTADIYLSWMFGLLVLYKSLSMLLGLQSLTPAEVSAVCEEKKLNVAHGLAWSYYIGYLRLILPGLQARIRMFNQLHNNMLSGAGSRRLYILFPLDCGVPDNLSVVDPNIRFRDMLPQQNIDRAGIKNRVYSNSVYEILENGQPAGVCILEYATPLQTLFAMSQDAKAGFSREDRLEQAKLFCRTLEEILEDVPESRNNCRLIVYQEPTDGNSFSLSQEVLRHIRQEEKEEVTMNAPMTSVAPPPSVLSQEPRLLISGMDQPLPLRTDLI
Procedure: FIG. 32B: MEFs stably transfected with HA-STING were treated with Brefeldin A (0.1 ng/ml) or chloroquine (0.1 mM) for 1 hour prior to ISD stimulation (3 hours 1 ng/ml in Lipofectamine 2000). Green=anti-HA and red=anti-calreticulin. FIG. 32C: Wild type MEFs were treated with Brefeldin A as above and IFNβ mRNA measured. FIGS. 32D, 32E: 293T cells were treated with various concentrations of Brefeldin A as above were co-transfected with STING, constitutively active IRF3 or IRF7 and IFN-luciferase reporter plasmid. Luciferase was measured after 24 hours. FIGS. 32F, 32G: Macrophages treated with various chloroquine amounts for one hour were treated with ISD (1 ng/ml), poly (dAT-dAT) [1 ng/ml] or LPS (1ng/ml) and after 16 hours IFNβ or IL6 measured by ELISA. FIG. 32H: STING^−/− MEFS were transfected with HA-STING or HA-STINGΔSP (that lacks the first 36 amino acids representing a potential signal peptide motif) for 24 hours prior to treatment with ISD (1 ng/ml). After 3 hours STING localization was measured using immunofluorescence and an anti-HA antibody (green) or anti calreticulin antibody (red). FIG. 32I: 293T cells were co-transfected with HA-STING or HA-STINGΔSP and an IFN-Luciferase plasmid and after 24 hours luciferase was measured. […] Asterisks indicate significant difference (P<0.05) as determined by Student's t-test. Error bars indicate s.d. […]

[2] = biological target: STING (Homo sapiens, UniProt Q86WV6); experiment: STING cell based assay, drug library screen
Chain of STING (Homo sapiens, UniProt Q86WV6) (Q86WV6 whole entry): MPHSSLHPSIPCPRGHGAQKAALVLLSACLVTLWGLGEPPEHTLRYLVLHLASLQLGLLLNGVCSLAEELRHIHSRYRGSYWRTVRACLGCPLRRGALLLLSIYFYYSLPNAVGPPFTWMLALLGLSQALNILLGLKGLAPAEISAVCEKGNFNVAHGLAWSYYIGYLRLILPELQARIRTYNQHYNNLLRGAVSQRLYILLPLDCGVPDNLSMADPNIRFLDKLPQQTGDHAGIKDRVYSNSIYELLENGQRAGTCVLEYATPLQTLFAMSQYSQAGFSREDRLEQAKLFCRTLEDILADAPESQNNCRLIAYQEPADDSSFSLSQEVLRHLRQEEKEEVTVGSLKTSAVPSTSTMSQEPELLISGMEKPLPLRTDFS

| SMILES | STING trafficking [1] | Activators of STING [2] |
| --- | --- | --- |
| CCN(CC)CCCC(C)Nc1ccnc2cc(Cl)ccc12 (stereo not shown) [chloroquine] | but not chloroquine blocked STING trafficking | – |
| C[C@H]1CCC/C=C/[C@@H]2C[C@H](O)C[C@H]2[C@H](O)/C=C/C(=O)O1 [Brefeldin A] | blocked STING trafficking | – |
| O=C(O)/C=C\C(=O)O.O=C1/C(=C/c2ccccc2)C[C@@]2(O)[C@H]3Cc4ccc(O)c5c4[C@@]2(CCN3CC2CC2)[C@H]1O5 [BNTX maleate salt hydrate] | – | Activators of STING |
| C[C@@H]1O[C@@H](O[C@H]2C[C@@H](O)[C@]3(CO)[C@H]4[C@H](O)C[C@]5(C)[C@@H]([C@@H]6COC(=O)C6)CC[C@]5(O)[C@@H]4CC[C@]3(O)C2)[C@H](O)[C@H](O)[C@H]1O [dihydroouabain] | – | Activators of STING |
